In patent US9284292B2, “Sialochimeric compounds” (THERAPICON S.R.L., priority 2009, dated 2016):

Test system: influenza virus A/H1N1(H275Y) (A/Parma/38/2008)
Assay type: cell-based, influenza virus type A

CCOC(=O)C1=CC(OC(CC)CC)C(NC(C)=O)C(NC2(C(=O)O)CC(O)C(NC(C)=O)C(CNC34CC5CC(CC(C5)C3)C4)O2)C1 (centres unmarked) [THE 08/01, Amantadine-C7-Neu5Ac—C16H28N2O4]
EC50: 14.5 µM | antiviral activity in vitro versus influenza virus A/H1N1(H275Y): comparable to that determined versus A/H1N1
